Source: patent US4520023A, “3-(3-Iodopropargyl)-benzo-1,2,3-triazin-4-ones, and their use in microbicidal agents” (Bayer Aktiengesellschaft, priority 1982, dated 1985)
≈ marks a conversion by molar mass, not a printed value. Like-named read-outs stand apart in the source and are kept apart here.

What was measured:
Chaetomium globosum = assay: Agar MIC determination, Chaetomium globosum; assay type: cell-based; conditions: 336 h, beerwort/peptone agar, 28° C., 2 weeks
Experimental: (§1) Active compounds according to the invention are added, in concentrations of 0.1 mg/liter to 5,000 mg/liter, to an agar prepared from beerwort and peptone. After storage at 28° C. and 60 to 70% relative atmospheric humidity for 2 weeks, the MIC is determined.

Aspergillus niger = assay: Agar MIC determination, Aspergillus niger; assay type: cell-based; conditions: 336 h, beerwort/peptone agar, 28° C., 2 weeks
Experimental: as §1

slime organisms = assay: Action against slime organisms in Allens nutrient solution; assay type: cell-based; conditions: 504 h
Experimental: Compounds according to the invention, dissolved in acetone, are used in concentrations of in each case 0.1 to 100 mg/liter in Allens nutrient solution (Arch. Mikrobiol. 17, 34 to 53 (1952)) containing, in 4 liters of sterile water, 0.2 g of ammonium chloride, 4.0 g of sodium nitrate, 1.0 g of dipotassium hydrogen phosphate, 0.2 g of calcium chloride, 2.05 g of magnesium sulphate, 0.02 g of iron chloride and 1% of caprolactam. Shortly beforehand, the nutrient solution is infected with slime organisms (about 10^6 germs/ml) which have been isolated from the spinning water circulations used in the preparation of polyamide.

Penicillium glaucum = assay: Agar MIC determination, Penicillium glaucum; assay type: cell-based; conditions: 336 h, beerwort/peptone agar, 28° C., 2 weeks
Experimental: as §1

Sclerophoma pityophila = assay: Agar MIC determination, Sclerophoma pityophila; assay type: cell-based; conditions: Sydowia polyspora, 336 h, beerwort/peptone agar, 28° C., 2 weeks
Experimental: as §1

Alternaria tenuis = assay: Agar MIC determination, Alternaria tenuis; assay type: cell-based; conditions: Alternaria alternata, 336 h, beerwort/peptone agar, 28° C., 2 weeks
Experimental: as §1

Trichoderma viride = assay: Agar MIC determination, Trichoderma viride; assay type: cell-based; conditions: 336 h, beerwort/peptone agar, 28° C., 2 weeks
Experimental: as §1

[1] = tested on: fungi (Aspergillus niger, Aureobasidium pullulans, Alternaria speciales, Penicillium citrinum, Stachybotrys atra, Paecilomyces varioti, Cladosporium herbarum …); assay: Testing of paint films for resistance to mould (Report 219, Defense Standards Laboratories); conditions: 1.5 to 2% (or more) based on total solids content
Experimental: The test is carried out in accordance with Report 219 of the Defense Standards Laboratories Maibyrnong/Australia, as follows: smooth cardboard is coated on both sides with the product to be tested and is dried at room temperature for 8 days. For ageing, part of the coating is kept in running water at 24° C. for 24 hours, part is aerated with fresh air of 40° to 60° C. for 8 days, and part is exposed to a dry Xenon test for 110 hours. 5×5 cm sections of the test pieces thus treated are placed individually in Petri dishes on a glucose nutrient medium, and are contaminated with a spore suspension of the following fungi: Aspergillus niger, Aureobasidium pullulans, Alternaria speciales, Penicillium citrinum, Stachybotrys atra, Paecilomyces varioti, Cladosporium herbarum, Aspergillus ustus or Aspergillus flavus.
The contaminated dishes are kept at 28°-30° C. and 90-95% relative atmospheric humidity, and are evaluated after 3 weeks. Paint films are regarded as mould-resistant if the test pieces remain free from fungi after this test.
A commercially available, alkaline emulsion paint based on polyvinyl acetate is tested for mould resistance by the test method described above.

Aureobasidium pullulans = assay: Agar MIC determination, Aureobasidium pullulans; assay type: cell-based; conditions: 336 h, beerwort/peptone agar, 28° C., 2 weeks
Experimental: as §1

Lentinus tigrinus = assay: Agar MIC determination, Lentinus tigrinus; assay type: cell-based; conditions: 336 h, beerwort/peptone agar, 28° C., 2 weeks
Experimental: as §1

Coniophora cerebella = assay: Agar MIC determination, Coniophora cerebella; assay type: cell-based; conditions: 336 h, beerwort/peptone agar, 28° C., 2 weeks
Experimental: as §1

[2] = slime organisms about 10^6 germs/ml, Allens nutrient solution, room temperature, 3 weeks, read-out: MIC

Row | MIC (slime organisms; [2]) [mg/L] | Structure (SMILES) | MIC (Chaetomium globosum) [µg/mL] | MIC (Aspergillus niger) [µg/mL] | MIC (Penicillium glaucum) [µg/mL] | MIC (slime organisms; read-out: MIC in mg/liter) [mg/L] | MIC (Sclerophoma pityophila) [µg/mL] | MIC (Alternaria tenuis) [µg/mL] | MIC (Trichoderma viride) [µg/mL] | mould resistance of paint films ([1]; alkaline polyvinyl acetate emulsion paint, 3 weeks, 28°-30° C.) | mould resistance of paint films after ageing ([1]; films first subjected to running water 24 hours, fresh air 40° to 60° C. 8 days, or dry Xenon test 110 hours) | MIC (Aureobasidium pullulans) [µg/mL] | MIC (Lentinus tigrinus) [µg/mL] | MIC (Coniophora cerebella) [µg/mL]
1 | 20 (≈ 56.2 µM) | O=c1c2cc([N+](=O)[O-])ccc2nnn1CC#CI [Active compound B, 3-(3-Iodopropargyl)-6-nitro-benzo-1,2,3-triazin-4-one] | < 20 | < 20 | < 20 |  |  |  |  |  |  |  |  | 
2 |  | O=c1c2ccccc2nnn1CC#CI [Active compound A, 3-(3-Iodopropargyl)-benzo-1,2,3-triazin-4-one] | < 20 | 5 (≈ 16.1 µM) | 5 (≈ 16.1 µM) | 5 (≈ 16.1 µM) | 3.5 (≈ 11.3 µM) | 5 (≈ 16.1 µM) | 10 (≈ 32.1 µM) | very good mould-resistant paint films | very good mould-resistant paint films | 5 (≈ 16.1 µM) | 2 (≈ 6.43 µM) | 0.5 (≈ 1.61 µM)
3 | 30 (≈ 86.8 µM) | O=c1c2ccc(Cl)cc2nnn1CC#CI [Active compound C, 3-(3-Iodopropargyl)-7-chloro-benzo-1,2,3-triazin-4-one] | < 20 | < 20 | < 20 |  |  |  |  |  |  |  |  | 
4 |  | CCCCNC(=O)OCC#CI [Active compound D, iodopropargyl N-butyl-carbamate, reference compound] | 60 (≈ 213 µM) | 80 (≈ 285 µM) | 40 (≈ 142 µM) |  |  |  | 140 (≈ 498 µM) |  |  |  |  | 
